Earlier results on one compound are cited in patent US20030049320A1, “Novel in-situ forming controlled release microcarrier delivery system” (priority 2000, published 2003).

The conditions of the data set: intravenously as a solution, reported in the literature.

`CC(=O)O[C@H]1C(=O)[C@@]2(C)[C@H]([C@H](OC(=O)c3ccccc3)[C@]3(O)C[C@H](OC(=O)[C@H](O)[C@@H](NC(=O)c4ccccc4)c4ccccc4)C(C)=C1C3(C)C)[C@]1(OC(C)=O)CO[C@@H]1C[C@@H]2O` [paclitaxel]: the “Plasma elimination half-life of paclitaxel” value is 1.1 h.
